Experimental findings from patent US20260325533A1, “CDK INHIBITOR COMPOUNDS” (ALEKSIA THERAPEUTICS, INC., priority 2023, published 2026) are described below.

Structures can show the parent of a compound that is named as a salt. Where two headings read alike, the source gives them in different places.

Holding throughout (assay type): biochemical
One assay concerns the target CDK4/CCND3 (Homo sapiens, UniProt P11802). Briefly: CDK4 homogeneous time-resolved fluorescence (HTRF) kinase assay. An outline of the steps: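 TR-FRET read (665 nm, or 665/615 ratio) of 4E-BP1 Thr37/46 phosphorylation by 1.5 nM CDK4/CCND3 at 1 mM ATP, 50 nM ULight peptide, 1% DMSO. Reaction ran 60 min at 23 °C after 20 min compound–enzyme preincubation. IC50 from 11-point half-log dilutions, top 10 μM.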

For the next assay, the target named is CDK6/CCND1 (Homo sapiens, UniProt Q00534). Briefly: CDK6 homogeneous time-resolved fluorescence (HTRF) kinase assay. In short, it runs like this:
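Assay conditions: HEPES buffer containing 10 mM MgCl2, 1 mM EGTA, 2 mM DTT, 0.01% Tween 20; 1 nM CDK6/CCND1, 50 nM peptide substrate, 1 mM ATP. Detection after 60 min reaction used 2 nM europium antibody with 340 nm excitation. Potency fitted from half-log series, 11 points.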

A further assay deals with CDK2/CCNE1 (Homo sapiens, UniProt P24941). Briefly: CDK2 homogeneous time-resolved fluorescence (HTRF) kinase assay. An outline of the steps:
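IC50 derived from 11-point, half-log dilutions (usually top 10 μM) of compound, 1% DMSO. Kinase (3 nM CDK2/CCNE1) was preincubated with compound 20 min, then phosphorylated 50 nM ULight-4E-BP1 peptide at 1 mM ATP for 60 min, 23 °C. Europium-antibody TR-FRET read after EDTA stop.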

The target of the next assay is CDK1/CCNB1 (Homo sapiens, UniProt P06493). Briefly: CDK1 homogeneous time-resolved fluorescence (HTRF) kinase assay. In short, it runs like this: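 Compounds, titrated 11 points in half-log steps typically from 10 μM, were incubated with enzyme for 20 min before ATP (1 mM) and ULight-labelled eIF4E-binding protein 1 peptide (50 nM) started a 60-min reaction at 23 °C. Phosphopeptide was detected by europium-antibody TR-FRET and IC50 values were derived.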

[1] abbreviates: >250 nM, CDK4/CCND, read-out: CDK4/CCND IC50, >250 nM.
[2] abbreviates: >250 nM, CDK6/CCND, 1 mM ATP, read-out: CDK6/CCND IC50, >250 nM.
Setting [3] is: 25-250 nM, CDK2/CCNE, read-out: CDK2/CCNE IC50, 25-250 nM.
The mark [4] stands for this setting: >250 nM, CDK1/CCNB, read-out: CDK1/CCNB IC50 >250 nM.
[5] abbreviates: 25-250 nM, CDK6/CCND, 1 mM ATP, read-out: CDK6/CCND IC50, 25-250 nM.
The mark [6] stands for this setting: <25 nM, CDK2/CCNE, read-out: CDK2/CCNE IC50, <25 nM.
Where [7] appears, read: 3 nM CDK2/CCNE1, 1 mM ATP, read-out: CDK2/CCNE IC50 25-250 nM.
Where [8] appears, read: 0.5 nM CDK1/CCNB1, 1 mM ATP, read-out: CDK1/CCNB IC50 >250 nM.
Setting [9] is: 1.5 nM CDK4/CCND3, 1 mM ATP, read-out: CDK4/CCND IC50 >250 nM.
[10] abbreviates: 1 nM CDK6/CCND1, 1 mM ATP, read-out: CDK6/CCND IC50 >250 nM.
The mark [11] stands for this setting: 3 nM CDK2/CCNE1, 1 mM ATP, read-out: CDK2/CCNE IC50 >250 nM.

Chain of CDK6/CCND1 (Q00534 whole entry): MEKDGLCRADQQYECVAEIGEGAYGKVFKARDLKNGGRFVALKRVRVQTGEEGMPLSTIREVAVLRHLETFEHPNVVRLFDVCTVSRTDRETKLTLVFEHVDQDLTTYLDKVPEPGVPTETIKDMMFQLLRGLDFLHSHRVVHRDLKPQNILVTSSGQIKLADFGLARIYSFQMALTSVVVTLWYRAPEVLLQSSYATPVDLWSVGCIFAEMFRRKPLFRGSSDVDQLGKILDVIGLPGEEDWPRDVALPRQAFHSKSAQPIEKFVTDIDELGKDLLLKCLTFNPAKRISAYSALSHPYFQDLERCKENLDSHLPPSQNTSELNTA
Chain of CDK6/CCND1 (P24385 whole entry partner): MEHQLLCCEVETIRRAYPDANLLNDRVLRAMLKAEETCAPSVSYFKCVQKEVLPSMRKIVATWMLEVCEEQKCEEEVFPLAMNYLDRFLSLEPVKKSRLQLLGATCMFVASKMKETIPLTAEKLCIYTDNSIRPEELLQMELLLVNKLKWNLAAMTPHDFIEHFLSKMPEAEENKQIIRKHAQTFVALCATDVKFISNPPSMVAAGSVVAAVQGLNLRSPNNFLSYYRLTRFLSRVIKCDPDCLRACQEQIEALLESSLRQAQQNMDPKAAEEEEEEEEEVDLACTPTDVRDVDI
Chain of CDK4/CCND3 (P11802 whole entry): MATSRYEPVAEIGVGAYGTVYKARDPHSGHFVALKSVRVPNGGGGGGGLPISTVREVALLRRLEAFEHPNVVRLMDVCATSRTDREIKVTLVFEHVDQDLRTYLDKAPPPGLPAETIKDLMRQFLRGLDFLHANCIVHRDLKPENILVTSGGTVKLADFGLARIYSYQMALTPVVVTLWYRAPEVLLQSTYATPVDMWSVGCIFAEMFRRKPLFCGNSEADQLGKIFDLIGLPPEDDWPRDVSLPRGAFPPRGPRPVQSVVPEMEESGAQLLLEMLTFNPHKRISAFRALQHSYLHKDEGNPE
Chain of CDK4/CCND3 (P30281 whole entry partner): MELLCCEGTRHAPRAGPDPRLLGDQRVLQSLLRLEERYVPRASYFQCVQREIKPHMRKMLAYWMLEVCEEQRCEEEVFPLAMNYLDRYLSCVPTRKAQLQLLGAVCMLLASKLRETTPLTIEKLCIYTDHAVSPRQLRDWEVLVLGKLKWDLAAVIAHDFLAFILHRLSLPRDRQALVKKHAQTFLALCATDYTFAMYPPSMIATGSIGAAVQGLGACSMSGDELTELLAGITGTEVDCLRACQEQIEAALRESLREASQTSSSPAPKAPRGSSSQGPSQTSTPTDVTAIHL
Chain of CDK1/CCNB1 (P06493 whole entry): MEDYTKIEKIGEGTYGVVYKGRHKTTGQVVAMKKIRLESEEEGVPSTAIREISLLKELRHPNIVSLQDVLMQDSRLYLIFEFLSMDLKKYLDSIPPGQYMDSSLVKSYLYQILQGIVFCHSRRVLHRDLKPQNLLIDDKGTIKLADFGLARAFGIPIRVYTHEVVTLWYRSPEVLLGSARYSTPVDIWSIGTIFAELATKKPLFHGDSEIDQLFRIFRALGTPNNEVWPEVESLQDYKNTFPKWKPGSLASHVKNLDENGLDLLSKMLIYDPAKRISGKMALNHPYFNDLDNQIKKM
Chain of CDK1/CCNB1 (P14635 whole entry partner): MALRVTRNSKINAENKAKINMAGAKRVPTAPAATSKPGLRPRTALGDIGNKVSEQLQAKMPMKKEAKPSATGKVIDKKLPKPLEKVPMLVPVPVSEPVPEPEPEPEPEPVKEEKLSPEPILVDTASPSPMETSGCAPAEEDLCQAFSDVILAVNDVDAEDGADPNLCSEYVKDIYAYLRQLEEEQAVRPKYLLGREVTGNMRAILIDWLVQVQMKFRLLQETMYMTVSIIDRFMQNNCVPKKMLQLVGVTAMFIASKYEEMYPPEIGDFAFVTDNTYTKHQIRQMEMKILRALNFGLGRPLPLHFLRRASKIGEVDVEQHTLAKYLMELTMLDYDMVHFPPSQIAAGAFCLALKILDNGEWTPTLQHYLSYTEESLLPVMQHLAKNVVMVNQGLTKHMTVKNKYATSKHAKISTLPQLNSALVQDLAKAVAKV

As to `Cc1c(-c2nccc3cnc(Nc4ccc(NS(=O)(=O)c5cc6ccccc6o5)cc4)cc23)ccc2c1cnn2CC(C)(C)O` [Example 776, N-(4-((5-(1-(2-hydroxy-2-methylpropyl)-4-methyl-1H-indazol-5-yl)-2,6-naphthyridin-3-yl)amino)phenyl)benzofuran-2-sulfonamide], the IC50 on CDK4/CCND3 (setting [1]) was more than 250 nM; at CDK6/CCND1 (setting [2]) it was more than 250 nM; on CDK2/CCNE1 (setting [3]) it was 25 to 250 nM; on CDK1/CCNB1 (setting [4]), more than 250 nM.
In the case of `Cc1c(-c2nccc3cnc(Nc4ccc(S(C)(=O)=O)cc4O)cc23)ccc2c1cnn2CC(C)(C)O` [Example 784, 2-((5-(1-(2-hydroxy-2-methylpropyl)-4-methyl-1H-indazol-5-yl)-2,6-naphthyridin-3-yl)amino)-5-(methylsulfonyl)phenol], the IC50 at CDK4/CCND3 (setting [1]) is more than 250 nM; on CDK6/CCND1 (setting [5]) it was 25 to 250 nM; on CDK2/CCNE1 (setting [6]) it was less than 25 nM; at CDK1/CCNB1 (setting [4]), more than 250 nM.
On to `Cc1c(-c2ncc(F)c3cnc(Nc4ccc(S(C)(=O)=O)cc4)cc23)ccc2c1cnn2CC(C)(C)O` [Example 788, 1-(5-(4-fluoro-7-((4-(methylsulfonyl)phenyl)amino)-2,6-naphthyridin-1-yl)-4-methyl-1H-indazol-1-yl)-2-methylpropan-2-ol], for which the IC50 was more than 250 nM at CDK4/CCND3 (setting [1]), more than 250 nM on CDK6/CCND1 (setting [2]), 25 to 250 nM at CDK2/CCNE1 (setting [3]) and more than 250 nM on CDK1/CCNB1 (setting [4]).
For `Cc1c(-c2nccc3cnc(Nc4ccc(S(=O)(=O)Nc5nc(C(F)(F)F)cc(C(F)(F)F)n5)cc4)cc23)ccc2c1cnn2CC(C)(C)O` [Example 789, N-(4,6-bis(trifluoromethyl)pyrimidin-2-yl)-4-((5-(1-(2-hydroxy-2-methylpropyl)-4-methyl-1H-indazol-5-yl)-2,6-naphthyridin-3yl)amino)benzenesulfonamide], the IC50 on CDK4/CCND3 (setting [1]) was more than 250 nM; at CDK6/CCND1 (setting [2]), more than 250 nM; on CDK2/CCNE1 (setting [3]), 25 to 250 nM; on CDK1/CCNB1 (setting [4]) it was more than 250 nM.
For the molecule `COc1ccc(C(=O)N2CC[C@@H](Nc3cc4c(-c5ccc6c(cnn6CC(C)(C)O)c5C)nccc4cn3)C2)cc1` [Example 790, (R)-(3-((5-(1-(2-hydroxy-2-methylpropyl)-4-methyl-1H-indazol-5-yl)-2,6-naphthyridin-3-yl)amino)pyrrolidin-1-yl)(4-methoxyphenyl)methanone], the IC50 was more than 250 nM at CDK4/CCND3 (setting [1]), more than 250 nM at CDK6/CCND1 (setting [2]), less than 25 nM at CDK2/CCNE1 (setting [6]) and more than 250 nM on CDK1/CCNB1 (setting [4]).
In the case of `CS(=O)(=O)c1ccc(Nc2cc3c(C#Cc4cnc(F)c(F)c4)nccc3cn2)cc1` [Example 852, 5-((5,6-difluoropyridin-3-yl)ethynyl)-N-(4-(methylsulfonyl)phenyl)-2,6-naphthyridin-3-amine], the IC50 was more than 250 nM at CDK4/CCND3 (setting [1]), more than 250 nM at CDK6/CCND1 (setting [2]), 25 to 250 nM on CDK2/CCNE1 (setting [3]) and more than 250 nM at CDK1/CCNB1 (setting [4]).
Take `N#Cc1ccc(C#Cc2nccc3cnc(Nc4ccc5c(c4)OCCS5(=O)=O)cc23)cc1` [Example 862, 4-((7-((4,4-dioxido-2,3-dihydrobenzo[b][1,4]oxathiin-7-yl)amino)-2,6-naphthyridin-1-yl)ethynyl)benzonitrile]: the IC50 at CDK4/CCND3 (setting [1]) is more than 250 nM; on CDK6/CCND1 (setting [2]) it was more than 250 nM; at CDK2/CCNE1 (setting [3]) it was 25 to 250 nM; at CDK1/CCNB1 (setting [4]) it was more than 250 nM.
Turning to `CN1CCN(c2ccc(C#Cc3nccc4cnc(Nc5ccc(S(=O)(=O)O)cc5)cc34)cc2)CC1` [Example 863, 4-((5-((4-(4-methylpiperazin-1-yl)phenyl)ethynyl)-2,6-naphthyridin-3-yl)amino)benzenesulfonic acid], the IC50 on CDK4/CCND3 (setting [1]) is more than 250 nM; at CDK6/CCND1 (setting [2]), more than 250 nM; on CDK2/CCNE1 (setting [3]), 25 to 250 nM; at CDK1/CCNB1 (setting [4]), more than 250 nM.
Take `CC#Cc1nccc2cnc(Nc3ccc(S(=O)(=O)Nc4nccc(N5CCN(C)CC5)n4)cc3)cc12` [Example 877, N-(4-(4-methylpiperazin-1-yl)pyrimidin-2-yl)-4-((5-(prop-1-yn-1-yl)-2,6-naphthyridin-3-yl)amino)benzenesulfonamide]: the IC50 at CDK4/CCND3 (setting [1]) is more than 250 nM; on CDK6/CCND1 (setting [2]), more than 250 nM; on CDK2/CCNE1 (setting [3]), 25 to 250 nM; on CDK1/CCNB1 (setting [4]) it was more than 250 nM.
Turning to `Cc1c(-c2nccc3cnc(Nc4cnc(O)c(N5CCN(CCO)CC5)c4)cc23)ccc2c1cnn2CC(C)(C)O` [Example 887, 5-((5-(1-(2-hydroxy-2-methylpropyl)-4-methyl-1H-indazol-5-yl)-2,6-naphthyridin-3-yl)amino)-3-(4-(2-hydroxyethyl)piperazin-1-yl)pyridin-2-ol], the IC50 was more than 250 nM at CDK4/CCND3 (setting [1]), more than 250 nM on CDK6/CCND1 (setting [2]), less than 25 nM at CDK2/CCNE1 (setting [6]) and more than 250 nM at CDK1/CCNB1 (setting [4]).
As for `CC(=O)NC1CCN(c2ccc(Nc3cc4c(-c5ccc6c(cnn6CC(C)(C)O)c5C)nccc4cn3)cc2S(C)(=O)=O)C1` (centres unmarked) [Example 930, N-(1-(4-((5-(1-(2-hydroxy-2-methylpropyl)-4-methyl-1H-indazol-5-yl)-2,6-naphthyridin-3-yl)amino)-2-(methylsulfonyl)phenyl)pyrrolidin-3-yl)acetamide], the IC50 at CDK4/CCND3 (25-250 nM, CDK4/CCND, read-out: CDK4/CCND IC50, 25-250 nM) is 25 to 250 nM; at CDK6/CCND1 (setting [5]), 25 to 250 nM; on CDK2/CCNE1 (setting [6]), less than 25 nM; on CDK1/CCNB1 (25-250 nM, CDK1/CCNB, read-out: CDK1/CCNB IC50, 25-250 nM), 25 to 250 nM.
Turning to `CS(=O)(=O)c1ccc(Nc2cc3c(C#Cc4ccc5c(c4)CCNC5)c(C#N)ccc3cn2)cc1` [Example 947, 3-((4-(methylsulfonyl)phenyl)amino)-5-((1,2,3,4-tetrahydroisoquinolin-6-yl)ethynyl)isoquinoline-6-carbonitrile], the IC50 on CDK4/CCND3 (1.5 nM CDK4/CCND3, 1 mM ATP, read-out: CDK4/CCND IC50 25-250 nM) is 25 to 250 nM; on CDK6/CCND1 (1 nM CDK6/CCND1, 1 mM ATP, read-out: CDK6/CCND IC50 25-250 nM), 25 to 250 nM; on CDK2/CCNE1 (setting [7]) it was 25 to 250 nM; on CDK1/CCNB1 (setting [8]) it was more than 250 nM.
As for `CS(=O)(=O)c1ccc(Nc2ncc3ccc(C#N)c(C#Cc4ccc5c(c4)CCNC5)c3n2)cc1` [Example 948, 2-((4-(methylsulfonyl)phenyl)amino)-8-((1,2,3,4-tetrahydroisoquinolin-6-yl)ethynyl)quinazoline-7-carbonitrile, TFA Salt], the IC50 on CDK4/CCND3 (setting [9]), at CDK6/CCND1 (setting [10]), at CDK2/CCNE1 (setting [11]) and at CDK1/CCNB1 (setting [8]) was more than 250 nM each time.
For `CS(=O)(=O)c1ccc(Nc2ncc3ccnc(C#Cc4ccc(C#N)cc4)c3n2)cc1` [Example 949, 4-((2-((4-(methylsulfonyl)phenyl)amino)pyrido[3,4-d]pyrimidin-8-yl)ethynyl)benzonitrile], the IC50 on CDK4/CCND3 (setting [9]), at CDK6/CCND1 (setting [10]), on CDK2/CCNE1 (setting [11]) and at CDK1/CCNB1 (setting [8]) was more than 250 nM throughout.
For `CS(=O)(=O)c1ccc(Nc2cc3c(C4=CCCCC4)ncnc3cn2)cc1` [Example 950, 4-(cyclohex-1-en-1-yl)-N-(4-(methylsulfonyl)phenyl)pyrido[3,4-d]pyrimidin-6-amine], the IC50 at CDK4/CCND3 (setting [9]) was more than 250 nM; on CDK6/CCND1 (setting [10]), more than 250 nM; on CDK2/CCNE1 (setting [7]) it was 25 to 250 nM; at CDK1/CCNB1 (setting [8]), more than 250 nM.
For the molecule `CS(=O)(=O)c1ccc(Nc2cc3c(N4CCC(C#N)CC4)c(C#N)cnc3cn2)cc1` [Example 953, 4-(4-cyanopiperidin-1-yl)-6-((4-(methylsulfonyl)phenyl)amino)-1,7-naphthyridine-3-carbonitrile], the IC50 on CDK4/CCND3 (setting [9]), on CDK6/CCND1 (setting [10]), on CDK2/CCNE1 (setting [11]) and at CDK1/CCNB1 (setting [8]) was more than 250 nM throughout.
As to `Cc1cc(N2CCC(C#N)CC2)c2nc(Nc3ccc(S(C)(=O)=O)cc3)ncc2c1` [Example 954, 1-(6-methyl-2-((4-(methylsulfonyl)phenyl)amino)quinazolin-8-yl)piperidine-4-carbonitrile], the IC50 on CDK4/CCND3 (setting [9]), at CDK6/CCND1 (setting [10]), at CDK2/CCNE1 (setting [11]) and at CDK1/CCNB1 (setting [8]) was more than 250 nM each time.
